The text below walks through data of patent publication US11590116B2 (THERAVANCE BIOPHARMA R&D IP, LLC, priority 2019, dated 2023).

Experiment [1] has as its system TGF-β-stimulated SMAD3 phosphorylation in BEAS-2B cells. Put plainly: Cellular ALK5 potency assay, inhibition of TGF-β stimulated pSMAD3 formation in BEAS-2B cells. The format is cell-based. The settings on record: Homo sapiens; inhibition of TGF-β stimulated pSMAD3 formation, BEAS-2B cells; read-out: BEAS2B pIC50 (converted). In short, it runs like this: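 AlphaLISA pSMAD3 read-out, beads incubated overnight. Human BEAS-2B cells: 1 h compound preincubation (37 °C, 5% CO2), then 30 min TGF-β at 10 ng/mL final, immediate lysis. Values are pIC50 relative to stimulated, compound-free baseline.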

Experiment [2] concerns the target T1, recombinant human ALK5 (TGF-βR1) protein (Homo sapiens, UniProt P36897).
T1 construct: purchased Life Technologies PR9075A
T1 sequence (P36897 34-503): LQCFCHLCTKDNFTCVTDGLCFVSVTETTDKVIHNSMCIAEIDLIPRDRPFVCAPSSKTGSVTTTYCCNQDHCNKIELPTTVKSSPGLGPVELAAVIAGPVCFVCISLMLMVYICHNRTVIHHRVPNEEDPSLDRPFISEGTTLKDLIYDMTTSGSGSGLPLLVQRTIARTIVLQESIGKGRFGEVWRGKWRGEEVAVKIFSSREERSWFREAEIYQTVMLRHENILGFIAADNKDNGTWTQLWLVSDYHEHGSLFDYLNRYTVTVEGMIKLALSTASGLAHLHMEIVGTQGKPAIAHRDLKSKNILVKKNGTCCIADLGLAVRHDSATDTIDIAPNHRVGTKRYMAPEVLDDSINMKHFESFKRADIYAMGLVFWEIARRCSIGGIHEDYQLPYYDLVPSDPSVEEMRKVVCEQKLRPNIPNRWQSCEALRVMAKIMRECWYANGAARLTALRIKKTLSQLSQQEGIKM
In words: Biochemical ALK5 (TGF-βR1) assay to measure pKi (LANCE Ultra ULight kinase assay). The settings on record: apparent pKi from pIC50 by Cheng-Prusoff, read-out: ALK5 pKi (converted). In outline: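 After a 60 min room-temperature preincubation of ALK5 with compound, phosphorylation proceeds 60 min at 37 °C on ATP addition (125 μM as 5× stock). Detection: Eu-labelled phospho-Thr1342 Topo IIα antibody in EDTA buffer, pH 7.0; emission 665 nm.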

Bounds are passed on as bounds.

Consider `Cc1cccc(-c2n[nH]cc2-c2ccc3ncc(NCCN4C[C@@H](C)N[C@@H](C)C4)cc3n2)n1` [Compound 516, 6-[3-(6-methyl-2-pyridyl)-1H-pyrazol-4-yl]-N-[2-[rac-(3R,5S)-3,5-dimethylpiperazin-1-yl]ethyl]-1,5-naphthyridin-3-amine], for which, in experiment [1], the IC50 is 25.1 to 158 nM. Further, the Ki in experiment [2] was 0.0398 to 0.316 nM.

As for `Cc1cccc(-c2[nH]cnc2-c2ccc3ncc(-c4cnc5c(c4)CCC5N)cc3c2)n1` (stereo not shown) [Compound 734, 3-[6-[5-(6-methyl-2-pyridyl)-1H-imidazol-4-yl]-3-quinolyl]-6,7-dihydro-5H-cyclopenta[b]pyridin-7-amine], the IC50 in experiment [1] is 25.1 to 158 nM. Also, the Ki in experiment [2] was 0.0398 to 0.316 nM.

With `Cc1cccc(-c2[nH]ncc2-c2ccc3ncc(C(=O)O[C@H]4CCN(C)C4)cc3n2)n1` [Compound 563, [(3S)-1-methylpyrrolidin-3-yl]6-[5-(6-methyl-2-pyridyl)-1H-pyrazol-4-yl]-1,5-naphthyridine-3-carboxylate], in experiment [1], the IC50 was 25.1 to 158 nM. In addition, the Ki in experiment [2] was 0.0398 to 0.316 nM.

On to `Cc1cccc(-c2[nH]cnc2-c2ccc3ncc(-c4csc(C(=O)OC[C@H]5CCCNC5)c4)cc3c2)n1` [Compound 1253, [(3S)-3-piperidyl]methyl 4-[6-[5-(6-methyl-2-pyridyl)-1H-imidazol-4-yl]-3-quinolyl]thiophene-2-carboxylate], for which the IC50 in experiment [1] is 25.1 to 158 nM. In addition, in experiment [2], the Ki is less than 0.0316 nM.

Take `CCc1cccc(-c2n[nH]cc2-c2ccc3ncc(N4CCC(N5CCCC5)CC4)cc3n2)n1` [Compound 532, 2-(3-(6-ethylpyridin-2-yl)-1H-pyrazol-4-yl)-7-(4-(pyrrolidin-1-yl)piperidin-1-yl)-1,5-naphthyridine]: the IC50 in experiment [1] is 25.1 to 158 nM. Besides, the Ki in experiment [2] was less than 0.0316 nM.

As for `Cc1cccc(-c2[nH]cnc2-c2ccc3ncc(C(=O)OCCC4CCNC4)cc3c2)n1` (stereo not shown) [Compound 1153, 2-pyrrolidin-3-ylethyl 6-[5-(6-methyl-2-pyridyl)-1H-imidazol-4-yl]quinoline-3-carboxylate], the IC50 in experiment [1] is 25.1 to 158 nM. In addition, the Ki in experiment [2] is 0.0398 to 0.316 nM.

On to `Cc1cccc(-c2n[nH]cc2-c2ccc3nccc(-c4cn(-c5ccccc5)nn4)c3n2)n1` [Compound 854, 2-[3-(6-methyl-2-pyridyl)-1H-pyrazol-4-yl]-8-(1-phenyltriazol-4-yl)-1,5-naphthyridine], for which, in experiment [1], the IC50 was 25.1 to 158 nM. The Ki in experiment [2] is 0.0398 to 0.316 nM.

On to `Cc1cccc(-c2[nH]ncc2-c2ccc3ncc(C(=O)OCCN4CC[C@@H](N)C4)cc3c2)n1` [Compound 1211, 2-[(3R)-3-aminopyrrolidin-1-yl]ethyl 6-[5-(6-methyl-2-pyridyl)-1H-pyrazol-4-yl]quinoline-3-carboxylate], for which the IC50 in experiment [1] is 25.1 to 158 nM. In addition, the Ki in experiment [2] was 0.0398 to 0.316 nM.

As for `Cc1cccc(-c2n[nH]cc2-c2ccc3ncc(CCC(=O)N4CCN(C(C)C)CC4)cc3n2)n1` [Compound 372, 1-(4-isopropylpiperazin-1-yl)-3-[6-[3-(6-methyl-2-pyridyl)-1H-pyrazol-4-yl]-1,5-naphthyridin-3-yl]propan-1-one], the IC50 in experiment [1] is 25.1 to 158 nM. Further, the Ki in experiment [2] was 0.398 to 3.16 nM.

On to `Cc1cccc(-c2[nH]ncc2-c2ccc3ncc(C(=O)O[C@H]4C[C@H](N)C4)cc3c2)n1` [Compound 1181, (3-aminocyclobutyl) 6-[5-(6-methyl-2-pyridyl)-1H-pyrazol-4-yl]quinoline-3-carboxylate], for which, in experiment [1], the IC50 was less than 20 nM. For the same compound, the Ki in experiment [2] is 0.0398 to 0.316 nM.

Turning to `Cc1cccc(-c2[nH]cnc2-c2ccc3ncc(-c4cncc(CN5CCNCC5)c4)cc3c2)n1` [Compound 1117, 6-[5-(6-methyl-2-pyridyl)-1H-imidazol-4-yl]-3-[5-(piperazin-1-ylmethyl)-3-pyridyl]quinoline], the IC50 in experiment [1] was 25.1 to 158 nM. Besides, the Ki in experiment [2] was 0.0398 to 0.316 nM.

`COC(=O)N1CCc2nnc(-c3cnc4ccc(-c5c[nH]nc5-c5ccc(F)c(C)n5)nc4c3)cc2C1` [Compound 303, methyl 3-[6-[3-(5-fluoro-6-methyl-2-pyridyl)-1H-pyrazol-4-yl]-1,5-naphthyridin-3-yl]-7,8-dihydro-5H-pyrido[4,3-c]pyridazine-6-carboxylate]: the IC50 in experiment [1] is 25.1 to 158 nM. Also, the Ki in experiment [2] is 0.0398 to 0.316 nM.

Consider `Cc1cccc(-c2[nH]cnc2-c2ccc3ncc(C4=CCC(C(=O)O)CC4)cc3c2)n1` (stereo not shown) [Compound 461, 4-[6-[5-(6-methyl-2-pyridyl)-1H-imidazol-4-yl]-3-quinolyl]cyclohex-3-ene-1-carboxylic acid], for which the IC50 in experiment [1] was 25.1 to 158 nM. Moreover, the Ki in experiment [2] was 0.0398 to 0.316 nM.

With `Cc1cccc(-c2[nH]cnc2-c2ccc3ncc(C4=CCNCC4)cc3c2)n1` [Compound 472, 6-[5-(6-methyl-2-pyridyl)-1H-imidazol-4-yl]-3-(1,2,3,6-tetrahydropyridin-4-yl)quinoline], in experiment [1], the IC50 was less than 20 nM. Moreover, the Ki in experiment [2] was less than 0.0316 nM.

With `Cc1cccc(-c2n[nH]cc2-c2ccc3ncc(N4CCC(N5CCOCC5)CC4)cc3n2)n1` [Compound 250, 4-[1-[6-[3-(6-methyl-2-pyridyl)-1H-pyrazol-4-yl]-1,5-naphthyridin-3-yl]-4-piperidyl]morpholine], the IC50 in experiment [1] is 25.1 to 158 nM. The Ki in experiment [2] is less than 0.0316 nM.

Consider `COc1[nH]nc(-c2cccc(C)n2)c1-c1ccc2ncc(NCCN3CCOCC3)cc2n1` [Compound 87, 6-[5-methoxy-3-(6-methyl-2-pyridyl)-1H-pyrazol-4-yl]-N-(2-morpholinoethyl)-1,5-naphthyridin-3-amine], for which, in experiment [1], the IC50 is 200 to 1260 nM. Moreover, the Ki in experiment [2] was 0.398 to 3.16 nM.

Consider `Cc1cccc(-c2[nH]ncc2-c2ccc3ncc(C(=O)OC[C@H]4CCCNC4)cc3c2)n1` [Compound 1230, [(3S)-3-piperidyl]methyl 6-[5-(6-methyl-2-pyridyl)-1H-pyrazol-4-yl]quinoline-3-carboxylate], for which the IC50 in experiment [1] is 25.1 to 158 nM. Further, the Ki in experiment [2] is 0.0398 to 0.316 nM.

On to `Cc1cccc(-c2[nH]cnc2-c2ccc3ncc(Nc4ccc(N5CCN(C(C)C)CC5)cn4)cc3c2)n1` [Compound 365, N-[5-(4-isopropylpiperazin-1-yl)-2-pyridyl]-6-[5-(6-methyl-2-pyridyl)-1H-imidazol-4-yl]quinolin-3-amine], for which, in experiment [1], the IC50 is 25.1 to 158 nM. Besides, the Ki in experiment [2] was 0.0398 to 0.316 nM.

In the case of `Cc1cccc(-c2n[nH]cc2-c2ccc3ncc(-c4c(C)n[nH]c4C)cc3n2)n1` [Compound 366, 7-(3,5-dimethyl-1H-pyrazol-4-yl)-2-[3-(6-methyl-2-pyridyl)-1H-pyrazol-4-yl]-1,5-naphthyridine], the IC50 in experiment [1] was 200 to 1260 nM. The Ki in experiment [2] was 0.0398 to 0.316 nM.

On to `Cc1cccc(-c2n[nH]c(N)c2-c2ccc3ncc(N4CCNCC4)cc3n2)n1` [Compound 238, 3-(6-methyl-2-pyridyl)-4-(7-piperazin-1-yl-1,5-naphthyridin-2-yl)-1H-pyrazol-5-amine], for which, in experiment [1], the IC50 is 1580 to 10000 nM. Further, the Ki in experiment [2] was 0.398 to 3.16 nM.

Consider `Cc1cccc(-c2nc3ccccn3c2-c2ccc3ncc(-c4cnc5n4CCNC5)cc3n2)n1` [Compound 524, 2-[2-(6-methyl-2-pyridyl)imidazo[1,2-a]pyridin-3-yl]-7-(5,6,7,8-tetrahydroimidazo[1,2-a]pyrazin-3-yl)-1,5-naphthyridine], for which, in experiment [1], the IC50 was 25.1 to 158 nM. The Ki in experiment [2] was 0.0398 to 0.316 nM.

As for `Cc1cccc(-c2[nH]cnc2-c2ccc3ncc(-c4ccc(C(=O)OCCNC5CNC5)cn4)cc3c2)n1` [Compound 1192, 2-(azetidin-3-ylamino)ethyl 6-[6-[5-(6-methyl-2-pyridyl)-1H-imidazol-4-yl]-3-quinolyl]pyridine-3-carboxylate], the IC50 in experiment [1] is 200 to 1260 nM. Further, in experiment [2], the Ki was 0.0398 to 0.316 nM.

As for `Cc1cccc(-c2[nH]nnc2-c2ccc3ncc(NCCN4CCN(C(C)C)CC4)cc3c2)n1` [Compound 621, N-(2-(4-isopropylpiperazin-1-yl)ethyl)-6-(5-(6-methylpyridin-2-yl)-1H-1,2,3-triazol-4-yl)quinolin-3-amine], the IC50 in experiment [1] was 25.1 to 158 nM. For the same compound, in experiment [2], the Ki is 0.0398 to 0.316 nM.

As for `Cc1cccc(-c2[nH]cnc2-c2ccc3ncc(NCCN(C)C4CNC4)cc3c2)n1` [Compound 593, N′-(azetidin-3-yl)-N′-methyl-N-[6-[5-(6-methyl-2-pyridyl)-1H-imidazol-4-yl]-3-quinolyl]ethane-1,2-diamine], the IC50 in experiment [1] was 200 to 1260 nM. The Ki in experiment [2] is 0.0398 to 0.316 nM.

On to `Cc1cccc(-c2c(-c3ccc4ncc(N5CCC(N(C)C)C5)cc4c3)nnn2Cc2ccccc2)n1` (stereo not shown) [Compound 38, 1-[6-[1-benzyl-5-(6-methyl-2-pyridyl)triazol-4-yl]-3-quinolyl]-N,N-dimethyl-pyrrolidin-3-amine], for which, in experiment [1], the IC50 is 1580 to 10000 nM. Also, in experiment [2], the Ki was 0.398 to 3.16 nM.

`COc1[nH]nc(-c2cccc(C)n2)c1-c1ccc2ncc(-c3cnn4c3NCC4)cc2n1` [Compound 371, 7-(2,3-dihydro-1H-imidazo[1,2-b]pyrazol-7-yl)-2-[5-methoxy-3-(6-methyl-2-pyridyl)-1H-pyrazol-4-yl]-1,5-naphthyridine]: the IC50 in experiment [1] is 200 to 1260 nM. Also, the Ki in experiment [2] was 0.398 to 3.16 nM.
